This passage reports IC50 results from PMC11898565, “Perturbation of Pseudomonas aeruginosa peptidoglycan recycling by anti-folates and design of a dual-action inhibitor” (mBio, 2025).

One assay concerns the target T1, VIM-2 (Pseudomonas aeruginosa, UniProt Q9K2N0).
T1 construct: gene blaVIM-2
Put plainly: in vitro meropenem hydrolysis assay ([…] nm), […] enzyme, […] ZnSO4. In kind it is biochemical.

Another assay concerns the target T2, NDM-1 (Klebsiella pneumoniae, UniProt C7C422).
T2 construct: gene blaNDM-1
The assay is described as above. The assay is classed as biochemical.

T2 sequence (C7C422 29-270 limits assumed): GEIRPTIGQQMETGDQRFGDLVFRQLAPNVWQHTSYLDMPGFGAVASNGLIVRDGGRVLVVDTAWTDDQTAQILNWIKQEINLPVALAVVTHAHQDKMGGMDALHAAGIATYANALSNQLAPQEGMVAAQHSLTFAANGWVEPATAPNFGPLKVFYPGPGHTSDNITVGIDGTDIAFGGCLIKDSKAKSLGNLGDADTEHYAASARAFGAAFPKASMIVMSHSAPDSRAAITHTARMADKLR

Turning to `Nc1ccc(S(=O)(=O)Nc2scnc2C(=O)O)cc1` [MLLB-2201], the IC50 (in general, the concentration that gives 50% inhibition) turned out to be 14.5 µM against VIM-2 and 1.8 µM on NDM-1.
